Blank lines part the entries; values can stand above or below the molecule they belong to. The source made the active and inactive calls.
Experiments:
X-box-binding protein 1 = target: T1, X-box-binding protein 1 (Homo sapiens, UniProt P17861); format: functional, Cricetulus griseus;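 further: confirmatory dose-response counter-screen serving a CHOP assay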
T1 sequence (P17861 whole entry): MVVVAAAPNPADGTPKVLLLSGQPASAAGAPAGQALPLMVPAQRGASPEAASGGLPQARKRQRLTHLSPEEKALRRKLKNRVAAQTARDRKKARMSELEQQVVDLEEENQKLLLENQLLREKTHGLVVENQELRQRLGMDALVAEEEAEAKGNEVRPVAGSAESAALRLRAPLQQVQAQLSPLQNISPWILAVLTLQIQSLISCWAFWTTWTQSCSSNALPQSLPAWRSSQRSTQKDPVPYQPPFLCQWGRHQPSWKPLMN

[1] = non-specific 3'UTR reporter inhibition in Clone20-Shn3RL – cell-based, Renilla luciferase, cherry-picked, counter-screen for Shn3 inhibitor project, dose response (AID 624133); format: functional
[2] = loss of viability in HepG2 cells – cell-based, CellTiter-Glo, cherry-picked, cytotoxicity control for Shn3 inhibitor project, dose response (AID 624134); format: functional
[3] = reduction of Shn3 3'UTR-driven luciferase in osteoblasts – cell-based, Clone20 osteoblasts, firefly luciferase, cherry-picked, dose response (AID 624132); format: functional;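 further: firefly luciferase luminescence from reporter carrying the Shn3 3'UTR in osteoblasts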
[4] = HEK-293T viability loss after treatment – luminescence, T-cell screen hits, cytotoxicity control for TCR NF-kB inhibitor project, dose response (AID 489026); format: functional, cell-based;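 further: cells exposed to compound about 14 hours before the viability readout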
[5] = target: T2, Heat shock factor protein 1 (Mus musculus, UniProt P38532); assay: decrease of HSF1-responsive luciferase luminescence – cell-based, NIH3T3, dose retest, confirmation (AID 2382); format: functional;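 further: NIH3T3 fibroblasts with HSF1-driven luciferase reporter stressed by proteasome inhibitor MG132; luminescence from HSF1-driven luciferase expression after 8 hours of MG132 stress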
T2 sequence (P38532 whole entry): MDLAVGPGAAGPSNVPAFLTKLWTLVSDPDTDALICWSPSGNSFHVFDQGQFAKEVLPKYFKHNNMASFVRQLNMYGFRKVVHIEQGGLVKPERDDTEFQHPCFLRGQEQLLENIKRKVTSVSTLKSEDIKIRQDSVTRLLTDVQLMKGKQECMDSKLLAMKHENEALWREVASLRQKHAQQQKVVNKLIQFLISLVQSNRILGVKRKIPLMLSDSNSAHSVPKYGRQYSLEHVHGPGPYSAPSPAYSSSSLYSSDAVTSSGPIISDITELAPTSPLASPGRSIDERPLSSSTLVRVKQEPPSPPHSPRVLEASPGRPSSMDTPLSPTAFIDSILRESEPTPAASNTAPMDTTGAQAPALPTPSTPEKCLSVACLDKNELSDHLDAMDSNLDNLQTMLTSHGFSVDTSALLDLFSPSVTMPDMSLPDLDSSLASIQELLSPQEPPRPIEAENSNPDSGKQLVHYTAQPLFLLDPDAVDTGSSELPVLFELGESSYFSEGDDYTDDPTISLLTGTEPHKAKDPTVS

cells [6] = format: functional, cell-based
cells [7] = format: functional, cell-based; remark: listed apart in the source
[8] = target: T3, Short transient receptor potential channel 4 (Mus musculus, UniProt Q9QUQ5); assay: calcium entry via TRPC4 opening agents – cell-based, HEK293 TRPC4/mu-opioid, Fluo-4 calcium, dose response (AID 434937); format: functional
T3 sequence (Q9QUQ5 whole entry): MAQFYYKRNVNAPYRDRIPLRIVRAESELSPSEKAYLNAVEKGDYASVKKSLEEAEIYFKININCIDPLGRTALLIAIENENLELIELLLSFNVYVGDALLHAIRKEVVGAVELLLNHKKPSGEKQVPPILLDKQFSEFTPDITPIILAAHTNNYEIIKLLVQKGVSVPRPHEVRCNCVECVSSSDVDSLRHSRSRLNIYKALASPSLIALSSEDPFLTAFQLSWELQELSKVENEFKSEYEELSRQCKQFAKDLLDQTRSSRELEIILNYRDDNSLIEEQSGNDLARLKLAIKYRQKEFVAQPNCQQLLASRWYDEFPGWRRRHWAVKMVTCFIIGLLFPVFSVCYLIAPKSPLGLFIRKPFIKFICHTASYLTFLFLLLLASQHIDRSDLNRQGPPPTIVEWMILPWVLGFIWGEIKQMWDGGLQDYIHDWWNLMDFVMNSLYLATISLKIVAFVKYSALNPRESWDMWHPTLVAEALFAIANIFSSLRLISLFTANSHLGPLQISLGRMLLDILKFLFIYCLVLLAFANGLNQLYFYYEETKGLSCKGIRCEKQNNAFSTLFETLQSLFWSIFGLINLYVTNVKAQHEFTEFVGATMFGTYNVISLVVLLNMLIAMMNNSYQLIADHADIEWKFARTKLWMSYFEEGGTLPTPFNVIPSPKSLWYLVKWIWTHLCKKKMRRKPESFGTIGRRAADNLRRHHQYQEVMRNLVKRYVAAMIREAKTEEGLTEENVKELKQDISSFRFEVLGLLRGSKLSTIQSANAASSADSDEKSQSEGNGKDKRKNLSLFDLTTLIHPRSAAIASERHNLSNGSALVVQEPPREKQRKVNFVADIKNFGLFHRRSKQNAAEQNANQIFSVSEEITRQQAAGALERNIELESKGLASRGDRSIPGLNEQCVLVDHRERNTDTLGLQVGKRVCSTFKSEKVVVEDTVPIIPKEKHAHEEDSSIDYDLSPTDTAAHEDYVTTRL

[9] = target: Intestinal-type alkaline phosphatase (Homo sapiens, UniProt P09923); assay: Dose Response confirmation of uHTS hits from a small molecule inhibitors of human intestinal alkaline phosphatase via a luminescent assay. [Related pubchem assays (depositor defined):AID2544, AID2574]; format: functional
Sequence of Intestinal-type alkaline phosphatase (P09923 whole entry): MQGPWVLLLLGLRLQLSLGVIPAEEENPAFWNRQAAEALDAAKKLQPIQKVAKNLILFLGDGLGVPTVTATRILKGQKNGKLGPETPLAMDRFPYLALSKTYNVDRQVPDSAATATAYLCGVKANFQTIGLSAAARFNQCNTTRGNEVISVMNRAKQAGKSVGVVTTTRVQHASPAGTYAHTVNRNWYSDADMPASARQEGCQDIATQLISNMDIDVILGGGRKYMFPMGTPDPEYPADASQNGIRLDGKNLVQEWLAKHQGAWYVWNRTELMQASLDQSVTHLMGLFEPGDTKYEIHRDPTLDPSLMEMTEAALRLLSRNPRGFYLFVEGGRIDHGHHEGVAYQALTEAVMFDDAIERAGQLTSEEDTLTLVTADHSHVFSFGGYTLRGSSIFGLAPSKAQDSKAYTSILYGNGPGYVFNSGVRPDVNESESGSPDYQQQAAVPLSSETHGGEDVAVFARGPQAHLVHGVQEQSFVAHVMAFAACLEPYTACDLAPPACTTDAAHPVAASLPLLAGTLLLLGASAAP

Structure (SMILES): CC(C)c1ccc(C2C3CSCC=C3C(C#N)=C(N)C2(C#N)C#N)cc1 (configuration not stated)
Absolute IC50 (XBP1) (X-box-binding protein 1): 10 µM

Structure (SMILES): Cc1ccc(NS(=O)(=O)c2ccc(C(=O)NC3CCN(Cc4ccccc4)CC3)cc2)cc1
AC50 [1]: 12.9 µM (active)
AC50 [2]: 14.8 µM (active)
AC50 [3]: 4.69 µM (active)
IC50 [4]: 76.2 µM (inactive)

Structure (SMILES): COC(=O)[C@]12OC[C@]34C([C@@H](O)[C@@H]1O)[C@]1(C)CC(=O)C(O)=C(C)[C@@H]1C[C@H]3OC(=O)[C@H](O)[C@@H]24 (some centres not stated)
EC50 [5]: 1.01 µM (active)
EC50 (cells [6]): > 350 µM (not active)
EC50 (cells [7]): > 350 µM (not active)
IC50 [4]: > 80 µM (inactive)

Structure (SMILES): O=C1CC(c2cc(F)ccc2F)c2cc3c(cc2N1)CCC3 (configuration not stated)
IC50 [4]: > 80 µM (inactive)

Further lines, results first:

EC50 [8]: 2.11 µM (active)
Structure (SMILES): Fc1ccc(NC(S)=NCCc2ccccn2)cc1

IC50 [9]: > 100 µM (inactive)
Structure (SMILES): COc1ccc(NC(=O)CCN2CCN(S(=O)(=O)c3cc(Cl)ccc3OC)CC2)cc1

— ChEMBL document CHEMBL1201862, “PubChem BioAssay data set” (2004)
